Measured values taken from paper PMC10313921, “A living ex vivo platform for functional, personalized brain cancer diagnosis” (Cell Reports Medicine, 2023).

Legend:
Assay type in all cases: cell-based, human
[1] = system: MB231Br (breast cancer metastasis to brain); experiment: Drug screening of MB231Br tumor foci on OBSCs
[2] = system: LN229 (established GBM line); experiment: Drug screening of LN229 tumor foci on OBSCs
Experimental: (§1) Tumor cells (0.17 μL, 25,000 cells) were seeded onto OBSCs 2h after slicing, with one tumor seeded in the center of each hemisphere for a total of two tumor foci per OBSC. BSM was changed 24h after slicing. Fluorescence images were taken 0 h, 24 h, and 96 h post-seeding for normalization of tumor size. Bioluminescence readouts were also taken at 0 h, 24 h, and 96 h post seeding for assessment of cell viability. Luciferin was added underneath the culture insert and allowed to incubate for 10 min before bioluminescence measurement on an AMI optical imaging system.
(§2) Tumor cells were seeded onto OBSCs 2h after slicing as described above. One day after tumor seeding, six concentrations of each drug were diluted in the media underneath each culture insert, or XRad was applied using an X-Rad 320 Precision X-ray machine (n = 4 tumor foci per concentration; n ≥ 24 tumor foci per drug per cell line). Three days after treatment, the bioluminescence of live tumor cells was measured using an AMI optical imager (Spectral Instruments) and dose-response curves were generated. Tumor survival was normalized to day one tumor fluorescence and compared to an untreated control group.
(§3) Several weighted parameters were factored into an overall drug sensitivity score.
(§4) For DSS parameters 1–6, therapeutic windows were calculated by comparing OBSC toxicity and tumor response at the doses where tumor kill passed through the DSS parameter (Table S1 and S3). For DSS parameter 7, the therapeutic window was calculated by comparing the slopes through the tumor EC50 and the OBSC tox EC50. For DSS parameter 8, the therapeutic window was calculated by comparing the areas under tumor kill and OBSC tox curves. Normalized therapeutic window ratios for DSS parameters 1–8 within each drug-tumor-OBSC interaction were calculated in the following manner: within each window, values ranged from +1 to −1, where values approaching +1 signify increasing tumor kill relative to normal tissue toxicity, and values approaching −1 indicate agents where tumors remained highly viable while toxicity to the normal OBSC tissue was elevated. DSS parameters 9–11 were determined based on the behavior of the tumor in response to the drug, as defined above.
(§5) All individually weighed parameters were added together to generate the DSS. Overall DSS from 0 to 100 signify increasing efficacy in tumor kill relative to OBSC toxicity, while scores from 0 to −100 describe scenarios in which tumors thrive more effectively than OBSCs for a given treatment. Dose-response values were calculated via linear interpolation of raw data, not from best-fit curve equations.

[3] = system: U373WT (wild-type established GBM line); experiment: Drug screening of U373WT tumor foci on OBSCs
Experimental: as §1, §2, §3, §4, §5

[4] = system: U373KO (RAD18 knockout of U373WT via CRISPR); experiment: Drug screening of U373KO tumor foci on OBSCs; settings: U373 KO on OBSCs
Experimental: as §1, §2, §3, §4, §5

[5] = system: GBM8 (high-passage patient-derived GBM line); experiment: Drug screening of GBM8 tumor foci on OBSCs
Experimental: as §1, §2, §3, §4, §5

[6] = system: MS21 (low-passage patient-derived GBM line); experiment: Drug screening of MS21 tumor foci on OBSCs
Experimental: as §1, §2, §3, §4, §5

[7] = system: PDIPG (low-passage pediatric patient-derived line); experiment: Drug screening of PDIPG tumor foci on OBSCs
Experimental: as §1, §2, §3, §4, §5

[8] = system: 7 cell lines (MB231Br, LN229, U373WT, U373KO, GBM8, MS21, PDIPG); experiment: Drug screening on OBSCs, summary over the panel of seven tumor lines; settings: number of lines responding
Experimental: as §1, §2, §3, §4, §5

[9] = area under the dose-response curve, trapezoidal rule
[10] = dose required to kill 10% of the tumor
[11] = dose required to kill 25% of the tumor
[12] = dose required to kill 75% of the tumor

`O=NN(CCCl)C(=O)NC1CCCCC1` [Lomustine] was tested. Which EC50 ([1]; Homo sapiens, MB231BR on OBSCs, dose required to kill 50% of the tumor) did it give?
The EC50 was 1.61 mM.

And the EC90 ([1]; Homo sapiens, MB231BR on OBSCs, dose required to kill 90% of the tumor)?
Its EC90 is 1.94 mM.

What about the IC50 ([1]; Homo sapiens, MB231Br on OBSCs, dosed day 1, survival via bioluminescence day 4, linear interpolation) of the same compound?
Its IC50 is 1.61 mM.

What about the “Killing at highest dose” value ([1]; MB231BR on OBSCs) of the same compound?
Its value is 9.70E-01 fraction of tumor population killed.

And the AUC ([1]; MB231BR on OBSCs, area under the dose-response curve, trapezoidal rule)?
The AUC was 1.96E+03.

What about the EC10 ([1]; MB231BR on OBSCs, dose required to kill 10% of the tumor) of the same compound?
The EC10 was 1280 µM.

What about the EC25 ([1]; MB231BR on OBSCs, dose required to kill 25% of the tumor) of the same compound?
The EC25 was 1400 µM.

What about the EC75 ([1]; MB231BR on OBSCs, dose required to kill 75% of the tumor) of the same compound?
Its EC75 is 1820 µM.

And the Slope ([1]; MB231BR on OBSCs, slope through the EC50)?
Its Slope is -1.20E-03.

What about the “Killing at highest dose” value [2] of the same compound?
Its value is 1.00E+00 fraction of tumor population killed.

What about the EC50 ([2]; Homo sapiens, LN-229, dose required to kill 50% of the tumor) of the same compound?
Its EC50 is 960 µM.

What about the EC90 ([2]; Homo sapiens, LN-229, dose required to kill 90% of the tumor) of the same compound?
Its EC90 is 1.78 mM.

What about the IC50 ([2]; Homo sapiens, LN-229, dosed day 1, survival via bioluminescence day 4, linear interpolation) of the same compound?
Its IC50 is 960 µM.

And the AUC [2, 9]?
Its AUC is 9.70E+02.

And the EC10 [2, 10]?
Its EC10 is 417 µM.

What about the EC25 [2, 11] of the same compound?
The EC25 was 758 µM.

And the EC75 [2, 12]?
The EC75 was 1440 µM.

And the Slope ([2]; slope through the EC50)?
Its Slope is -1.24E-03.

And the EC50 ([3]; Homo sapiens, U373 MG, U373 WT on OBSCs, dose required to kill 50% of the tumor)?
Its EC50 is 665 µM.

And the EC90 ([3]; Homo sapiens, U373 MG, U373 WT on OBSCs, dose required to kill 90% of the tumor)?
Its EC90 is 1.96 mM.

What about the IC50 ([3]; Homo sapiens, U373 MG, U373 WT on OBSCs, dosed day 1, survival via bioluminescence day 4, linear interpolation) of the same compound?
The IC50 was 665 µM.

What about the “Killing at highest dose” value ([3]; U373 WT on OBSCs) of the same compound?
Its value is 9.10E-01 fraction of tumor population killed.

And the AUC ([3]; U373 WT on OBSCs, area under the dose-response curve, trapezoidal rule)?
The AUC was 8.89E+02.

And the EC10 ([3]; U373 WT on OBSCs, dose required to kill 10% of the tumor)?
Its EC10 is 139 µM.

And the EC25 ([3]; U373 WT on OBSCs, dose required to kill 25% of the tumor)?
Its EC25 is 554 µM.

And the EC75 ([3]; U373 WT on OBSCs, dose required to kill 75% of the tumor)?
The EC75 was 1380 µM.

What about the Slope ([3]; U373 WT on OBSCs, slope through the EC50) of the same compound?
The Slope was -2.24E-03.

And the “DSS (drug sensitivity score)” value ([3]; U373 WT, scale -100 to +100, tumor kill relative to OBSC toxicity)?
Its value is 64.

What about the EC50 ([4]; Homo sapiens, U373 MG, dose required to kill 50% of the tumor) of the same compound?
The EC50 was 607 µM.

And the EC90 ([4]; Homo sapiens, U373 MG, dose required to kill 90% of the tumor)?
Its EC90 is 1.83 mM.

And the IC50 ([4]; Homo sapiens, U373 MG, dosed day 1, survival via bioluminescence day 4, linear interpolation)?
The IC50 was 607 µM.

And the “Killing at highest dose” value [4]?
The value was 9.70E-01 fraction of tumor population killed.

And the AUC [4, 9]?
The AUC was 8.35E+02.

What about the EC10 [4, 10] of the same compound?
Its EC10 is 83.3 µM.

And the EC25 [4, 11]?
Its EC25 is 208 µM.

What about the EC75 [4, 12] of the same compound?
Its EC75 is 1460 µM.

And the Slope ([4]; slope through the EC50)?
The Slope was -5.60E-04.

What about the “Killing at highest dose” value ([5]; GBM8 on OBSCs) of the same compound?
The value was 1.00E+00 fraction of tumor population killed.

And the AUC ([5]; GBM8 on OBSCs, area under the dose-response curve, trapezoidal rule)?
Its AUC is 1.54E+01.

What about the EC10 ([5]; GBM8 on OBSCs, dose required to kill 10% of the tumor) of the same compound?
The EC10 was 0.685 µM.

What about the EC25 ([5]; GBM8 on OBSCs, dose required to kill 25% of the tumor) of the same compound?
The EC25 was 1.71 µM.

And the EC75 ([5]; GBM8 on OBSCs, dose required to kill 75% of the tumor)?
Its EC75 is 5.45 µM.

And the Slope ([5]; GBM8 on OBSCs, slope through the EC50)?
The Slope was -1.46E-01.

And the EC50 ([5]; Homo sapiens)?
The EC50 was 3.43 µM.

And the EC90 ([5]; Homo sapiens)?
The EC90 was 8.71 µM.

What about the IC50 ([5]; Homo sapiens) of the same compound?
The IC50 was 3.4 µM.

What about the EC50 ([6]; Homo sapiens) of the same compound?
The EC50 was 1.55 mM.

What about the EC90 ([6]; Homo sapiens) of the same compound?
The EC90 was 1.99 mM.

And the IC50 ([6]; Homo sapiens)?
Its IC50 is 1.55 mM.

What about the “Killing at highest dose” value ([6]; MS21 on OBSCs) of the same compound?
The value was 9.10E-01 fraction of tumor population killed.

And the AUC ([6]; MS21 on OBSCs, area under the dose-response curve, trapezoidal rule)?
Its AUC is 1.61E+03.

And the EC10 ([6]; MS21 on OBSCs, dose required to kill 10% of the tumor)?
The EC10 was 1120 µM.

And the EC25 ([6]; MS21 on OBSCs, dose required to kill 25% of the tumor)?
The EC25 was 1280 µM.

What about the EC75 ([6]; MS21 on OBSCs, dose required to kill 75% of the tumor) of the same compound?
The EC75 was 1830 µM.

What about the Slope ([6]; MS21 on OBSCs, slope through the EC50) of the same compound?
Its Slope is -9.20E-04.

And the EC50 ([7]; Homo sapiens)?
Its EC50 is 688 µM.

And the EC90 ([7]; Homo sapiens)?
The EC90 was 1.88 mM.

And the IC50 ([7]; Homo sapiens)?
Its IC50 is 688 µM.

What about the “Killing at highest dose” value ([7]; PDIPG on OBSCs) of the same compound?
Its value is 9.30E-01 fraction of tumor population killed.

And the AUC ([7]; PDIPG on OBSCs, area under the dose-response curve, trapezoidal rule)?
The AUC was 9.11E+02.

What about the EC10 ([7]; PDIPG on OBSCs, dose required to kill 10% of the tumor) of the same compound?
The EC10 was 354 µM.

And the EC25 ([7]; PDIPG on OBSCs, dose required to kill 25% of the tumor)?
Its EC25 is 425 µM.

What about the EC75 ([7]; PDIPG on OBSCs, dose required to kill 75% of the tumor) of the same compound?
Its EC75 is 1310 µM.

What about the Slope ([7]; PDIPG on OBSCs, slope through the EC50) of the same compound?
The Slope was -4.80E-04.

What about the “response / killing over the 7 cell lines” value [8] of the same compound?
The value was “robust response”.
